Laboratory results from patent US6706663B2, “Herbicidal 3-heterocyclic substituted benzisothiazole and benzisoxazole compounds” (Wyeth, priority 2000, dated 2004).

Columns and labels:
[1] = test system: SETVI (Setaria viridis); experiment: Postemergence herbicidal evaluation; format: in vivo, (L.) Beau; conditions: for SETVI herbicidal rating: postemergence
How it was run: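 Ratings use a 0-9 visual scale covering stand, vigor, malformation, size, chlorosis and appearance versus a control, scored 4-5 weeks post-spray. Roughly two-week-old seedlings received about 0.0040-1.000 kg/ha active, applied in 50/50 acetone/water with 0.5% TWEEN 20. Multiple tests per compound were averaged.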

[2] = test system: SAGPY (Sagittaria pygmaea); experiment: Flooded paddy, preemergence weed control; format: in vivo, L.; conditions: rated 3-4 weeks after treatment, 0-9 rating scale
How it was run: (§1)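 Visual 0–9 ratings versus controls scored stand, vigor, malformation, size, chlorosis and overall appearance. Plants grew from seeds or propagating organs sown 0.5 cm deep in silt loam, with water held 1.5–3 cm above the soil for the whole test under greenhouse care.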

[3] = test system: ORYSAT (Rice, Tebonnet); experiment: Preemergence herbicidal evaluation; format: in vivo, Oryza sativa, (L.) Tebonnet; conditions: rated 4-5 weeks after treatment
[4] = test system: ECHCG (Echinochloa crus-galli); experiment: Postemergence herbicidal evaluation; format: in vivo, (L.) Beau; conditions: for ECHCG herbicidal rating: postemergence
How it was run: (§2)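 Seedlings grown for about two weeks were sprayed postemergence and then kept under standard greenhouse care. Injury was rated visually 4–5 weeks after treatment on a 0–9 scale against untreated controls, and ratings from repeat tests were averaged.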

[5] = test system: ECHORC (Echinochloa oryzoides); experiment: Flooded paddy, preemergence weed control; format: in vivo, Echinochloa oryzoides (Ard.) Fritsch.; conditions: rated 3-4 weeks after treatment, 0-9 rating scale
How it was run: as §1

[6] = test system: CYPSE (Cyperus serotinus); experiment: Flooded paddy, preemergence weed control; format: in vivo, Rottb.; conditions: rated 3-4 weeks after treatment, 0-9 rating scale
How it was run: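 Herbicidal effect was scored visually on a 0–9 scale against an untreated control 3–4 weeks after treatment. Compounds were applied preemergence as 50/50 v/v aqueous/acetone mixtures into flood water (1.5–3 cm deep over silt loam), at roughly 0.0080 to 0.1250 kg/ha active ingredient.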

[7] = test system: ZEAMX (Corn, Field); experiment: Postemergence herbicidal evaluation; format: in vivo, Zea mays, L.; conditions: for ZEAMX herbicidal rating: postemergence
How it was run: as §2

[8] = test system: GALAP (Galium aparine); experiment: Postemergence herbicidal evaluation; format: in vivo; conditions: for GALAP herbicidal rating: postemergence
How it was run: as §2

[9] = test system: TRZAWR (Wheat, Winter, cv Riband); experiment: Postemergence herbicidal evaluation; format: in vivo, Triticum aestivum; conditions: for TRZAWR herbicidal rating: postemergence
How it was run: as §2

[10] = test system: GALAP (Galium aparine); experiment: Preemergence herbicidal evaluation; format: in vivo; conditions: rated 4-5 weeks after treatment
How it was run: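 Each species was sown separately in potting soil over roughly one inch of soil, and the surface sprayed with compound dissolved in aqueous acetone. Assessment used a 0–9 visual scale against a control after four to five weeks.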

SMILES: CC1CCOC(c2nsc3ccc(-n4c(=O)cc(C(F)(F)F)n(C)c4=O)cc23)O1 (centres unmarked) [Compound 37, 1-methyl-3-[3-(4-methyl-m-dioxan-2-yl)-1,2-benzisothiazol-5-yl]-6-(trifluoromethyl)uracil]
- Postemergence herbicidal rating, SETVI ([1]; rate 0.0320 kg/ha): 9.0
- Postemergence herbicidal rating, SETVI ([1]; rate 0.0620 kg/ha): 9.0
- herbicidal rating, SAGPY ([2]; rate 0.0080 kg/ha): 0.0
- herbicidal rating, SAGPY ([2]; rate 0.0320 kg/ha): 7.0
- herbicidal rating, SAGPY ([2]; rate 0.1250 kg/ha): 9.0
- ORYSAT preemergence herbicidal rating ([3]; Rate 0.0620 kg/ha): 9.0
- ORYSAT preemergence herbicidal rating ([3]; Rate 0.1250 kg/ha): 9.0
- ORYSAT preemergence herbicidal rating ([3]; Rate 0.2500 kg/ha): 9.0
- Postemergence herbicidal rating, ECHCG ([4]; rate 0.0320 kg/ha): 4.0
- Postemergence herbicidal rating, ECHCG ([4]; rate 0.0620 kg/ha): 4.0
- herbicidal rating, ECHORC ([5]; rate 0.0080 kg/ha): 3.0
- herbicidal rating, ECHORC ([5]; rate 0.0320 kg/ha): 9.0
- herbicidal rating, ECHORC ([5]; rate 0.1250 kg/ha): 9.0
- herbicidal rating, CYPSE ([6]; rate 0.0320 kg/ha): 9.0
- herbicidal rating, CYPSE ([6]; rate 0.1250 kg/ha): 9.0
- Postemergence herbicidal rating, ZEAMX ([7]; rate 0.0320 kg/ha): 6.0
- Postemergence herbicidal rating, ZEAMX ([7]; rate 0.0620 kg/ha): 6.0
- Postemergence herbicidal rating, GALAP ([8]; rate 0.0320 kg/ha): 4.0
- Postemergence herbicidal rating, GALAP ([8]; rate 0.0620 kg/ha): 4.0
- Postemergence herbicidal rating, TRZAWR ([9]; rate 0.0320 kg/ha): 5.0
- Postemergence herbicidal rating, TRZAWR ([9]; rate 0.0620 kg/ha): 7.0
- GALAP preemergence herbicidal rating ([10]; Rate 0.0620 kg/ha): 5.0
- GALAP preemergence herbicidal rating ([10]; Rate 0.1250 kg/ha): 9.0
- GALAP preemergence herbicidal rating ([10]; Rate 0.2500 kg/ha): 9.0

SMILES: Cc1cccnc1-c1nsc2cc(F)c(N3C(=O)C4=C(CCCC4)C3=O)cc12 [Compound 46, N-[6-fluoro-3-(3-methyl-2-pyridyl)-1,2-benzisothiazol-5-yl]-1-cyclohexene-1,2-dicarboximide]
- Postemergence herbicidal rating, SETVI ([1]; rate 0.0320 kg/ha): 3.0
- Postemergence herbicidal rating, SETVI ([1]; rate 0.0620 kg/ha): 4.0
- Postemergence herbicidal rating, SETVI ([1]; rate 0.1250 kg/ha): 9.0
- herbicidal rating, SAGPY ([2]; rate 0.0320 kg/ha): 0.0
- herbicidal rating, SAGPY ([2]; rate 0.1250 kg/ha): 2.0
- Preemergence herbicidal rating ORYSAT ([3]; Rate 0.0620 kg/ha): 1.0
- Preemergence herbicidal rating ORYSAT ([3]; Rate 0.1250 kg/ha): 0.0
- Preemergence herbicidal rating ORYSAT ([3]; Rate 0.2500 kg/ha): 4.0
- Postemergence herbicidal rating, ECHCG ([4]; rate 0.0320 kg/ha): 2.0
- Postemergence herbicidal rating, ECHCG ([4]; rate 0.0620 kg/ha): 2.0
- Postemergence herbicidal rating, ECHCG ([4]; rate 0.1250 kg/ha): 4.0
- herbicidal rating, ECHORC ([5]; rate 0.0320 kg/ha): 5.0
- herbicidal rating, ECHORC ([5]; rate 0.1250 kg/ha): 7.0
- herbicidal rating, CYPSE ([6]; rate 0.1250 kg/ha): 0.0
- Postemergence herbicidal rating, ZEAMX ([7]; rate 0.0320 kg/ha): 4.5
- Postemergence herbicidal rating, ZEAMX ([7]; rate 0.0620 kg/ha): 4.5
- Postemergence herbicidal rating, ZEAMX ([7]; rate 0.1250 kg/ha): 5.5
- Postemergence herbicidal rating, GALAP ([8]; rate 0.0320 kg/ha): 4.0
- Postemergence herbicidal rating, GALAP ([8]; rate 0.0620 kg/ha): 6.0
- Postemergence herbicidal rating, GALAP ([8]; rate 0.1250 kg/ha): 5.0
- Postemergence herbicidal rating, TRZAWR ([9]; rate 0.0320 kg/ha): 4.0
- Postemergence herbicidal rating, TRZAWR ([9]; rate 0.0620 kg/ha): 4.5
- Postemergence herbicidal rating, TRZAWR ([9]; rate 0.1250 kg/ha): 5.0
- Preemergence herbicidal rating GALAP ([10]; Rate 0.1250 kg/ha): 0.0
- Preemergence herbicidal rating GALAP ([10]; Rate 0.2500 kg/ha): 0.0

SMILES: Cn1c(C(F)(F)F)cc(=O)n(-c2ccc3snc(C4OCCCS4)c3c2)c1=O (centres unmarked) [Compound 34, 1-methyl-3-[3-(1,3-oxathian-2-yl)-1,2-benzisothiazol-5-yl]-6-(trifluoromethyl)uracil]
- SETVI herbicidal rating ([1]; rate 0.0320 kg/ha): 9.0
- SETVI herbicidal rating ([1]; rate 0.0620 kg/ha): 9.0
- Postemergence herbicidal rating, SETVI ([1]; rate 0.0320 kg/ha): 6.0
- Postemergence herbicidal rating, SETVI ([1]; rate 0.0620 kg/ha): 8.0
- herbicidal rating, SAGPY ([2]; rate 0.0080 kg/ha): 0.0
- herbicidal rating, SAGPY ([2]; rate 0.0320 kg/ha): 4.7
- herbicidal rating, SAGPY ([2]; rate 0.0620 kg/ha): 3.5
- ORYSAT preemergence herbicidal rating ([3]; Rate 0.0620 kg/ha): 5.5
- Preemergence herbicidal rating ORYSAT ([3]; Rate 0.0620 kg/ha): 3.0
- ORYSAT preemergence herbicidal rating ([3]; Rate 0.1250 kg/ha): 8.0
- Preemergence herbicidal rating ORYSAT ([3]; Rate 0.1250 kg/ha): 4.5
- ORYSAT preemergence herbicidal rating ([3]; Rate 0.2500 kg/ha): 9.0
- Preemergence herbicidal rating ORYSAT ([3]; Rate 0.2500 kg/ha): 5.5
- ECHCG herbicidal rating ([4]; rate 0.0320 kg/ha): 3.0
- ECHCG herbicidal rating ([4]; rate 0.0620 kg/ha): 4.0
- Postemergence herbicidal rating, ECHCG ([4]; rate 0.0320 kg/ha): 4.0
- Postemergence herbicidal rating, ECHCG ([4]; rate 0.0620 kg/ha): 6.0
- herbicidal rating, ECHORC ([5]; rate 0.0320 kg/ha): 9.0
- herbicidal rating, ECHORC ([5]; rate 0.0620 kg/ha): 8.0
- herbicidal rating, ECHORC ([5]; rate 0.1250 kg/ha): 9.0
- herbicidal rating, CYPSE ([6]; rate 0.0620 kg/ha): 9.0
- herbicidal rating, CYPSE ([6]; rate 0.1250 kg/ha): 9.0
- ZEAMX herbicidal rating ([7]; rate 0.0320 kg/ha): 5.0
- ZEAMX herbicidal rating ([7]; rate 0.0620 kg/ha): 7.0
- Postemergence herbicidal rating, ZEAMX ([7]; rate 0.0320 kg/ha): 6.0
- Postemergence herbicidal rating, ZEAMX ([7]; rate 0.0620 kg/ha): 7.0
- GALAP herbicidal rating ([8]; rate 0.0320 kg/ha): 2.0
- GALAP herbicidal rating ([8]; rate 0.0620 kg/ha): 6.0
- Postemergence herbicidal rating, GALAP ([8]; rate 0.0320 kg/ha): 6.0
- Postemergence herbicidal rating, GALAP ([8]; rate 0.0620 kg/ha): 7.0
- TRZAWR herbicidal rating ([9]; rate 0.0320 kg/ha): 4.0
- TRZAWR herbicidal rating ([9]; rate 0.0620 kg/ha): 6.5
- Postemergence herbicidal rating, TRZAWR ([9]; rate 0.0320 kg/ha): 5.5
- Postemergence herbicidal rating, TRZAWR ([9]; rate 0.0620 kg/ha): 5.5
- GALAP preemergence herbicidal rating ([10]; Rate 0.0620 kg/ha): 5.0
- Preemergence herbicidal rating GALAP ([10]; Rate 0.0620 kg/ha): 9.0
- GALAP preemergence herbicidal rating ([10]; Rate 0.1250 kg/ha): 9.0
- Preemergence herbicidal rating GALAP ([10]; Rate 0.1250 kg/ha): 9.0
- GALAP preemergence herbicidal rating ([10]; Rate 0.2500 kg/ha): 9.0
- Preemergence herbicidal rating GALAP ([10]; Rate 0.2500 kg/ha): 9.0
